Measured values published in patent US11274332B2, “Methods of administering 3,4-diaminopyridine” (SERB SA, priority 2011, dated 2022).
Where two headings read alike, the source gives them in different places.

Assay: Example 18 Part 2: multiple dose PK (20 mg QID) of 3,4-DAP and 3-N-acetyl metabolite in slow and fast acetylators
Format: in vivo, human
Settings: for AUC(0-t) / Cmax / Tmax / Vd/F / half-life: both sexes, human, plasma, oral, 20 mg; for Cmax: read-out: Cmax; for Tmax: read-out: Tmax; for Vd/F: read-out: Vz/F; for half-life: read-out: t1/2 (converted)
Protocol: The following method was used to analyze concentrations of 3,4-diaminopyridine and N-(4-aminopyridin-3-yl)acetamide in plasma and urine samples for the experiments in Example 18. In the LC/MS/MS method, the human plasma and urine samples were extracted using acetonitrile containing 0.1% formic acid. Samples were analyzed by using HPLC with positive ion electrospray MS/MS detection. The column was an Atlantis HILIC Silica column (3 μm, 3×50 mm) at a temperature of 40° C. Mobile phase A was water containing ammonium formate (20 mM) and 0.1% formic acid. Mobile phase B was acetonitrile/isopropanol (90/10; v/v) containing 0.1% formic acid. The flow rate was 0.90 mL/minute. The gradient conditions for human plasma and urine samples were as follows:
The LC/MS/MS method was validated to quantify 3,4-DAP in human plasma in the linear calibration range of 0.500 to 500 ng/mL and from 1.00 to 1000 ng/mL for the 3-N-acetyl metabolite.
The primary objective of the study was to assess the safety and tolerability of 3,4-DAP phosphate after single and multiple doses. The secondary objectives of the study were • Part 1 only: To determine the dose-related PK profile of amifampridine and of 3-N-acetyl amifampridine after single, escalating doses of 3,4-DAP phosphate • Part 2 only: To assess the steady-state plasma PK and accumulation of amifampridine and of 3-N-acetyl amifampridine over multiple days of dosing with 3,4-DAP phosphate An exploratory objective was to examine the overall activity of the N-acetyl transferase enzymes on the metabolism of amifampridine by assessing the PK of amifampridine and 3-N-acetyl amifampridine with phenotypic acetylation activity and genotyping determination of NAT2 gene polymorphisms. Study Design and Plan
This open-label study in healthy subjects (male and female) was conducted in 2 parts. A total of 26 healthy male and female subjects, 12 in Part 1 (at least 5 of each sex), 4 in Part 2 Group 1, and 10 in Part 2 Group 2 (at least 4 of each sex) were enrolled into the study. The same subjects were not enrolled to participate in both parts. Subjects in Part 2 were dosed only after all subjects of Part 1 completed dosing and at least 24-hours of follow-up safety evaluation after the last dose were completed.
All subjects were characterized for their metabolic acetylation phenotype and NAT2 genotype in order to divide subjects into two groups of acetylators. Volunteers were genetically typed for highly variant alleles of the N-acetyl transferase 2 enzyme (NAT2) domain on chromosome 8 (according to Example 16) and were phenotyped for acetylation rates with a caffeine challenge test (according to Example 15a). Approximately equal numbers of slow and fast acetylators (as defined by a caffeine challenge test in Example 15a) were enrolled in each group. In Part 2, very slow acetylators with NAT2 activity (ratio 1, Example 15a) below 0.06 were excluded from participation in the study. In each part of the study, subjects were assessed for PK, safety, and tolerability and all doses were administered within 30 min of ingestion of a meal or a snack.
Part 2, Group 1: Four sentinel subjects were selected after determining their acetylator status. Two were fast acetylators and two were slow acetylators. All four were dosed on Day 1 with 4 oral doses of 20 mg of 34-DAP phosphate (given at 4-hour dosing intervals). On Days […] and 2, safety and tolerability data was collected. Subjects left the clinic on Day 2. The safety and tolerability data collected for these 4 sentinel subjects were reviewed. The safety and tolerability results of Days 1 and 2 for these subjects were acceptable and thus Part 2 Group 2 was commenced. Minimally acceptable safety was defined as the absence of clinical seizure activity. Subjects in Group 1 returned to the clinic for their follow-up assessments 2-4 days following their last dose.
Each subject was given a final morning dose of 20 mg 3,4-DAP phosphate on Day 4. […]

[1] = Day 1, fast acetylators, Dose 1 interval, 20 mg QID, arith. mean
[2] = Day 1, fast acetylators, Dose 2 interval, 20 mg QID, arith. mean
[3] = Day 1, fast acetylators, Dose 3 interval, 20 mg QID, arith. mean
[4] = Day 1, fast acetylators, Dose 4 interval, 20 mg QID, arith. mean
[5] = Day 1, slow acetylators, Dose 1 interval, 20 mg QID, arith. mean
[6] = Day 1, slow acetylators, Dose 2 interval, 20 mg QID, arith. mean
[7] = Day 1, slow acetylators, Dose 3 interval, 20 mg QID, arith. mean
[8] = Day 1, slow acetylators, Dose 4 interval, 20 mg QID, arith. mean
[9] = Day 3, fast acetylators, Dose 1 interval, 20 mg QID, arith. mean
[10] = Day 3, fast acetylators, Dose 2 interval, 20 mg QID, arith. mean
[11] = Day 3, fast acetylators, Dose 3 interval, 20 mg QID, arith. mean
[12] = Day 3, fast acetylators, Dose 4 interval, 20 mg QID, arith. mean
[13] = Day 3, slow acetylators, Dose 1 interval, 20 mg QID, arith. mean
[14] = Day 3, slow acetylators, Dose 2 interval, 20 mg QID, arith. mean
[15] = Day 3, slow acetylators, Dose 3 interval, 20 mg QID, arith. mean
[16] = Day 3, slow acetylators, Dose 4 interval, 20 mg QID, arith. mean
[17] = metabolite, Day 4, 20 mg single dose, fast acetylators
[18] = metabolite, Day 4, 20 mg single dose, slow acetylators

CL/F [1]: 16.2 L/h | CL/F [2]: 7.78 L/h | CL/F [3]: 8.90 L/h | CL/F [4]: 7.62 L/h | CL/F [5]: 28.8 L/h | CL/F [6]: 20.2 L/h | CL/F [7]: 13.5 L/h | CL/F [8]: 10.4 L/h | CL/F [9]: 11.5 L/h | CL/F [10]: 7.56 L/h | CL/F [11]: 7.72 L/h | CL/F [12]: 7.03 L/h | CL/F [13]: 19.0 L/h | CL/F [14]: 14.5 L/h | CL/F [15]: 12.7 L/h | CL/F [16]: 9.65 L/h | AUC(0-t) (Day 1, fast acetylators, Dose 1-4, 20 mg QID, arith. mean, read-out: AUC0-24): 5740 ng·h/mL | AUC(0-t) (Day 1, fast acetylators, Dose 1 interval, 20 mg QID, arith. mean, read-out: AUC0-4): 773 ng·h/mL | Cmax [1]: 333 ng/mL | Tmax [1]: 1.43 h | Vd/F [1]: 55.2 L | half-life [1]: 2.35 h | AUC(0-t) (Day 1, fast acetylators, Dose 2 interval, 20 mg QID, arith. mean, read-out: AUC0-4): 1160 ng·h/mL | Cmax [2]: 396 ng/mL | Tmax [2]: 1.5 h | Vd/F [2]: 32.9 L | half-life [2]: 2.93 h | AUC(0-t) (Day 1, fast acetylators, Dose 3 interval, 20 mg QID, arith. mean, read-out: AUC0-4): 1280 ng·h/mL | Cmax [3]: 426 ng/mL | Tmax [3]: 0.964 h | Vd/F [3]: 40.3 L | half-life [3]: 3.28 h | AUC(0-t) (Day 1, fast acetylators, Dose 4 interval, 20 mg QID, arith. mean, read-out: AUC0-4): 1340 ng·h/mL | Cmax [4]: 433 ng/mL | Tmax [4]: 1.14 h | Vd/F [4]: 40 L | half-life [4]: 3.93 h | AUC(0-t) (Day 1, slow acetylators, Dose 1-4, 20 mg QID, arith. mean, read-out: AUC0-24): 3580 ng·h/mL | AUC(0-t) (Day 1, slow acetylators, Dose 1 interval, 20 mg QID, arith. mean, read-out: AUC0-4): 383 ng·h/mL | Cmax [5]: 150 ng/mL | Tmax [5]: 1.68 h | Vd/F [5]: 120 L | half-life [5]: 2.95 h | AUC(0-t) (Day 1, slow acetylators, Dose 2 interval, 20 mg QID, arith. mean, read-out: AUC0-4): 627 ng·h/mL | Cmax [6]: 204 ng/mL | Tmax [6]: 1.46 h | Vd/F [6]: 101 L | half-life [6]: 3.5 h | AUC(0-t) (Day 1, slow acetylators, Dose 3 interval, 20 mg QID, arith. mean, read-out: AUC0-4): 759 ng·h/mL | Cmax [7]: 240 ng/mL | Tmax [7]: 1.25 h | Vd/F [7]: 71.5 L | half-life [7]: 4 h | AUC(0-t) (Day 1, slow acetylators, Dose 4 interval, 20 mg QID, arith. mean, read-out: AUC0-4): 769 ng·h/mL | Cmax [8]: 235 ng/mL | Tmax [8]: 1.71 h | Vd/F [8]: 70.6 L | half-life [8]: 4.74 h | AUC(0-t) (Day 3, fast acetylators, Dose 1-4, 20 mg QID, arith. mean, read-out: AUC0-24): 6570 ng·h/mL | AUC(0-t) (Day 3, fast acetylators, Dose 1 interval, 20 mg QID, arith. mean, read-out: AUC0-4): 1020 ng·h/mL | Cmax [9]: 374 ng/mL | Tmax [9]: 1.35 h | Vd/F [9]: 44.5 L | half-life [9]: 2.77 h | AUC(0-t) (Day 3, fast acetylators, Dose 2 interval, 20 mg QID, arith. mean, read-out: AUC0-4): 1320 ng·h/mL | Cmax [10]: 448 ng/mL | Tmax [10]: 1.3 h | Vd/F [10]: 36.6 L | half-life [10]: 3.6 h | AUC(0-t) (Day 3, fast acetylators, Dose 3 interval, 20 mg QID, arith. mean, read-out: AUC0-4): 1410 ng·h/mL | Cmax [11]: 490 ng/mL | Tmax [11]: 0.9 h | Vd/F [11]: 39.2 L | half-life [11]: 3.74 h | AUC(0-t) (Day 3, fast acetylators, Dose 4 interval, 20 mg QID, arith. mean, read-out: AUC0-4): 1460 ng·h/mL | Cmax [12]: 509 ng/mL | Tmax [12]: 1.1 h | Vd/F [12]: 42 L | half-life [12]: 4.17 h | AUC(0-t) (Day 3, slow acetylators, Dose 1-4, 20 mg QID, arith. mean, read-out: AUC0-24): 3650 ng·h/mL | AUC(0-t) (Day 3, slow acetylators, Dose 1 interval, 20 mg QID, arith. mean, read-out: AUC0-4): 523 ng·h/mL | Cmax [13]: 206 ng/mL | Tmax [13]: 1.75 h | Vd/F [13]: 95 L | half-life [13]: 3.47 h | AUC(0-t) (Day 3, slow acetylators, Dose 2 interval, 20 mg QID, arith. mean, read-out: AUC0-4): 684 ng·h/mL | Cmax [14]: 222 ng/mL | Tmax [14]: 1.5 h | Vd/F [14]: 81.5 L | half-life [14]: 3.89 h | AUC(0-t) (Day 3, slow acetylators, Dose 3 interval, 20 mg QID, arith. mean, read-out: AUC0-4): 802 ng·h/mL | Cmax [15]: 249 ng/mL | Tmax [15]: 1.2 h | Vd/F [15]: 68.1 L | half-life [15]: 3.75 h | AUC(0-t) (Day 3, slow acetylators, Dose 4 interval, 20 mg QID, arith. mean, read-out: AUC0-4): 814 ng·h/mL | Cmax [16]: 258 ng/mL | Tmax [16]: 0.9 h | Vd/F [16]: 78.3 L | half-life [16]: 5.7 h | AUC(0-t) (metabolite, Day 4, 20 mg single dose, fast acetylators, read-out: Mean AUC0-4): 1030 ng·h/mL | AUC(0-t) (metabolite, Day 4, 20 mg single dose, fast acetylators, read-out: Mean AUC0-24): 2120 ng·h/mL | AUC(0-t) (metabolite, Day 4, 20 mg single dose, slow acetylators, read-out: Mean AUC0-4): 513 ng·h/mL | AUC(0-t) (metabolite, Day 4, 20 mg single dose, slow acetylators, read-out: Mean AUC0-24): 1230 ng·h/mL | Mean CL/F [17]: 69.4 L/h | Mean t1/2 [17]: 1.40 h | Mean CL/F [18]: 116 L/h | Mean t1/2 [18]: 1.55 h
Compound: CC(=O)Nc1cnccc1N [3-N-acetyl amifampridine, N-(4-aminopyridin-3-yl)acetamide]
